Reference: PubChem BioAssay (NCI)
Values joined by “and” are separate entries in the source; they are usually repeats but may differ in a detail not shown here. Equal values may be shown once.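 Tested at 5 concentrations; 48 h exposure; 96-well plates; endpoints linearly interpolated, else capped at highest concentration. Abbreviation: GI50, concentration required for 50% inhibition of growth. At the TGI there is no net growth.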

Legend:
Experiment in all cases: NCI anticancer screen, dose series, 48 h
A549 NSCLC = system: A549 NSCLC
NCI-H226 lung = system: NCI-H226 lung
ACHN renal = system: ACHN renal
MCF7 breast = system: MCF7 breast
TK-10 renal = system: TK-10 renal
MDA-MB-435 = system: MDA-MB-435
EKVX NSCLC = system: EKVX NSCLC
NCI-H23 lung = system: NCI-H23 lung
SW-620 colon = system: SW-620 colon
NCI-H460 lung = system: NCI-H460 lung

Compound | GI50 (A549 NSCLC) [µM] | TGI (A549 NSCLC) [µM] | GI50 (NCI-H226 lung) [µM] | TGI (NCI-H226 lung) [µM] | GI50 (ACHN renal) [µM] | TGI (ACHN renal) [µM] | GI50 (MCF7 breast) [µM] | TGI (MCF7 breast) [µM] | GI50 (TK-10 renal) [µM] | TGI (TK-10 renal) [µM] | GI50 (MDA-MB-435) [µM] | TGI (MDA-MB-435) [µM] | GI50 (EKVX NSCLC) [µM] | TGI (EKVX NSCLC) | GI50 (NCI-H23 lung) [µM] | TGI (NCI-H23 lung) | GI50 (SW-620 colon) [µM] | TGI (SW-620 colon) [µM] | GI50 (NCI-H460 lung) [µM] | TGI (NCI-H460 lung)
C/C(CC(C)(C)N1CC1)=N\NC(=O)Nc1cccc2ccccc12 | 3.53 | 14.2 | 3.51 | 14.9 | 2.99 | 11.8 | 2.42 | 11.2 | 2.81 | 7.23 | 6.19 | 19.9 | 5.84 | 19.9 µM | 3.78 | 21.3 µM | 2.89 | 12.4 | 2.86 | 10 µM
O=S(=O)(O)n1ccnc1 (tested in a mixture with another compound) |  | > 100 |  | > 100 |  | > 100 |  | > 100 |  | > 100 |  | > 100 |  | > 100 µM |  | > 100 µM |  | > 100 |  | > 100 µM
C#CCOC(=O)/C=C/C(=O)Oc1ccc2c(C)cc(=O)oc2c1 | > 100 | > 100 | > 100 | > 100 | > 100 | > 100 | > 100 | > 100 | > 100 | > 100 | > 100 | > 100 | > 100 | > 100 µM | > 100 | > 100 µM | > 100 | > 100 | > 100 | > 100 µM
O=C(c1ccccc1)C1OC1C(=O)c1ccccc1 (stereo unspecified) | 4.17 | 39.2 | 5.24 | > 100 | 3.67 | 15.7 | 2.34 | 14.7 | 1.86 | 8.37 | 2.86 | > 100 | 6.68 | > 100 µM | 2.33 | 10.8 µM | 3.11 | 16.1 | 3.93 | > 100 µM
CN[C@@H](Cc1cccc2ccccc12)C(=O)N[C@@H](CC(C)C)B(O)O | 0.0465 |  |  | 0.00722 |  | > 100 | 0.00637 |  | 0.0256 | 0.0821 | 0.00425 | 0.0147 | 0.0277 | 0.209 µM and 0.0476 µM | 0.016 | 0.0387 µM and < 0.0114 µM | 0.012 | 0.026 | 0.0266 | 0.105 µM and 0.0551 µM
COc1cc2c(cc1O)c(=O)n(CCN(C)C)c1c3cc4c(cc3ncc21)OCO4 | 0.0356 | 0.594 | 0.0184 | 0.124 | < 0.01 | 0.0464 | < 0.01 | 1.62 | 0.127 | 0.524 | 0.0195 | 0.258 | 0.239 | 3.66 µM | < 0.01 | 0.151 µM | < 0.01 | > 33.2 | < 0.01 | 0.329 µM
CCN1C(=O)N(CC)C2C1NN=c1s/c(=C\c3ccc(C(F)(F)F)cc3)c(=O)n12 (stereo unspecified) | 0.395 | > 43.1 | 1.14 | > 24.8 | 0.808 | 30.5 | 0.338 | > 40 | 2.23 | > 62.3 | 0.169 | 0.437 | 0.521 | > 56.2 µM | 0.585 | > 64.4 µM | 0.406 | > 42.2 | 0.365 | 10.9 µM
CC[C@H]1CCC/C=C/[C@@H]2C[C@H](O)C[C@H]2[C@H](O)/C=C/C(=O)O1 | 0.0434 | > 100 | 0.0197 | 0.0424 | 0.0443 | > 100 | 0.0266 | 0.102 | 0.0355 | 0.568 | 0.0434 | > 100 | 0.0522 | > 100 µM | 0.0414 | 5.23 µM | 0.0313 | 0.517 | 0.107 | > 100 µM
CCc1cccc(NC(=O)Nc2ccc(Oc3ccc4nc(NC(=O)OC)[nH]c4c3)cc2)c1 | 5.35 | > 15.3 | 5.03 | > 20.7 | 10.8 | > 25 | 0.654 | > 6.24 | 6.61 | > 19.8 | 0.0716 | 0.643 | > 23.9 | > 25 µM | 5.59 | > 20.8 µM | 3.05 | 12.1 | 3.4 | 12.4 µM
COc1ccc(-c2cc(-c3ccc(OC)cc3)nc(NCCCNc3ccnc4cc(Cl)ccc34)n2)cc1 | 1.81 | 3.66 | 11.3 | 28.2 | 1.82 | 3.22 | 1.65 | 3.5 | 1.97 | 3.56 | 1.73 | 3.18 | 1.67 | 4.17 µM | 1.8 | 3.72 µM | 1.69 | 3.34 | 1.77 | 3.32 µM
